In ChEMBL document CHEMBL1156876, “Design and study of peptide-based inhibitors of amylin cytotoxicity” (Bioorg Med Chem Lett, 2010):
Non-standard residues stand in square brackets, D forms with d. Residues, ends and D or L forms follow the SMILES beside them. NMeH = CN[C@@H](Cc1c[nH]cn1)C(=O)O; NMeF = CN[C@@H](Cc1ccccc1)C(=O)O; NMeI = CC[C@H](C)[C@H](NC)C(=O)O; NMeT = CN[C@H](C(=O)O)[C@@H](C)O; NMeN = CN[C@@H](CC(N)=O)C(=O)O; NMeL = CN[C@@H](CC(C)C)C(=O)O; NMeV = CN[C@H](C(=O)O)C(C)C; NMeS = CN[C@@H](CO)C(=O)O; NMeA = CN[C@@H](C)C(=O)O; Sar = CNCC(=O)O

Legend:
[1] = Cytotoxicity against rat RIN5F cells at 225 uM; format: cell-based
[2] = Inhibition of amylin-induced cytotoxicity in rat RIN5F cells at 225 uM after 24 hrs by MTT assay relative to control; format: functional; set-up: scale not given: the % may be the effect or the level left

| Molecule | Activity [1] | Activity [2] |
| --- | --- | --- |
| CC(C)C[C@@H](C(=O)N(C)[C@@H](C)C(N)=O)N(C)C(=O)[C@H](CCCNC(=N)N)N(C)C(=O)[C@H](CCC(N)=O)N(C)C(=O)[C@@H](N)[C@H](C)O | Non-toxic | – |
| CC(C)C[C@@H](C(=O)N(C)[C@H](C(=O)N(C)[C@@H](Cc1cnc[nH]1)C(=O)N(C)[C@@H](CO)C(=O)N(C)[C@@H](CO)C(N)=O)C(C)C)N(C)C(=O)[C@@H](N)Cc1ccccc1 (H-F[NMeL][NMeV][NMeH][NMeS][NMeS]-NH2) | Non-toxic | – |
| C[C@H](NC(=O)[C@@H](NC(=O)[C@@H](N)CC(N)=O)[C@@H](C)O)C(=O)N[C@H](C(N)=O)[C@@H](C)O (H-NTAT-NH2) | Non-toxic | 25% |
| CC[C@H](C)[C@@H](C(=O)N(C)[C@@H](CC(C)C)C(N)=O)N(C)C(=O)[C@H](C)N(C)C(=O)CN(C)C(=O)[C@H](Cc1ccccc1)N(C)C(=O)[C@@H](N)CC(N)=O (H-N[NMeF][Sar][NMeA][NMeI][NMeL]-NH2) | Non-toxic | – |
| C[C@@H](O)[C@@H](C(=O)N(C)[C@@H](C)C(=O)N(C)[C@H](C(N)=O)[C@@H](C)O)N(C)C(=O)[C@@H](N)CC(N)=O (H-N[NMeT][NMeA][NMeT]-NH2) | Non-toxic | – |
| CC(C)[C@@H](C(=O)N(C)CC(=O)N(C)[C@@H](CO)C(N)=O)N(C)C(=O)[C@H](CC(N)=O)N(C)C(=O)[C@H]([C@@H](C)O)N(C)C(=O)[C@@H](N)CO (H-S[NMeT][NMeN][NMeV][Sar][NMeS]-NH2) | Non-toxic | – |
| H-FLVHSS-NH2 | Non-toxic | 20% |
| H-NFGAIL-NH2 | Non-toxic | 50% |
| H-STNVGS-NH2 | Non-toxic | 18% |
| H-TQRLA-NH2 | Non-toxic | 50% |
